Results from US8519154B2, “Method for treatment of bronchial asthma” (Council of Scientific & Industrial Research, priority 2011, dated 2013).
Like-named read-outs stand apart in the source and are kept apart here.

Legend:
[1] = tested on: OVA sensitized and challenged mice, lung sections; assay: Histological analysis of lung inflammation in mouse model of asthma; assay type: in vivo; settings: H&E lung sections
Experimental: To determine the effect of Compound I on airway inflammation, histopathological analysis of formalin fixed, paraffin embedded lung sections was performed. The excised lung portion was fixed in 10% buffered formalin. The fixed, paraffin embedded tissue were sectioned into 4 μm sections and stained with Hematoxylin & Eosin (H&E) to assess inflammation

[2] = Determination of pharmacokinetics in mice; assay type: in vivo, swiss mice
Experimental: Treatment of animal: Healthy swiss mice of both the sexes (25-30) were used. The animals were kept (3/cage) under controlled conditions (temp 26±2° C.; relative humidity 50±5%; 12 h light/dark cycle) and maintained on pelleted rodent diet […]. Ashirwad Industries Ltd. Chandigarh, India). Water was provided ad libitum. Compound I was solubilised in 2% gum acacia by trituration and diluted with normal saline to obtained desired concentration. The compound was administered orally (20 mg/kg BW) or via intravenous route (10 mg/kg bw).
Sampling time: Blood samples were collected at 0, 5, 15 and 30 min, and 1, 2, 4, 6, 8, 16 and 24 hrs post-administration after oral/iv route in pre-labeled heparinised tubes and centrifuged (3500 rpm×10 minutes) to obtain the plasma. A total of 6 animals were used per time point.
(i) Aliquots of plasma (250 ul) were mixed with ethyl acetate (3 ml), vortexed for two minutes (2500 rpm) and centrifuged at 5000 rpm for 10 min. The organic layer was collected and evaporated to dryness using solvent evaporator (Model: SPD 111V, Thermo Electron Corporation, MA). The dried samples were reconstituted in mobile phase for HPLC analysis.
(2) Calibration standards were prepared from aliquots of plasma collected from untreated animals which were spiked with molecule I (0.25 μg-10 μg/ml). […] The extraction efficiency of the molecule from plasma matrix was 90-93%.
HPLC determinations HPLC determinations were done on Thermofinningan chromatograph (Model: SpectraSystem SCM 1000 equipped with quaternary pump P-4000; autosampler AS 3000; UV 6000 LP): diode array detector). Molecule D8 was run under the following conditions:
Column: RP-8 (5 um); Mobile Phase: Acetonitrile:Water (51:49); Wavelength: 272 nm Flow Rate: 1 ml/min; Retention time: 8.035 min; The lower limit of detection (LOD): 3.5 ng/ml; limit of quantitation (LOQ): 10 ng/ml.
Bioavailability indices. A concentration-time curve for Molecule D8 was established and pharmacokinetic parameters (Cmax, Tmax, AUC0-24, Clerance (Cl) and Volume of Distribution (vd) were determined by using a software (PK Solutions version 2.0; Summit Research Services, USA).
Absolute bioavailability was determined using the following formula: AUCoral×doseiv/AUCv×Doseoral.

[3] = Organ distribution of ICB/11/D-8; assay type: in vivo; settings: Swiss, mouse, N=4 mice
Experimental: Organ Distribution of ICB/11/D-8 (ug/100 mg tissue, N=4 mice, 50

mice = assay: Charcoal meal transit time; assay type: in vivo
Experimental: […] charcoal suspension (20 ml/kg prepared as a 5% solution in 10% gum acacia) was administered perorally 60 min after D8 administration (perorally). After 30 min, charcoal meal administration small intestines were excised and aligned parallel to a ruler. Ratio of the distance traveled by the charcoal meal to the total length of the small intestine was determined for the control (untreated) and Compound I treated mice [Ali, B. H. Bashir, A A. The effect of alpha 2-receptor agonists and antagonists on gastro-intestinal transit time. Clinical and Experimental Pharmacology and Physiology, 20 (1993) 1-6].

Male wistar rats = assay: Blood pressure, heart rate and respiratory rate by telemetry; assay type: in vivo; set-up: RR: unit not given beside the values; settings: for RR / HR / DBP / SBP: 50 mg/kg i.v.; for HR: in bpm (unit assumed); for DBP / SBP: in mmHg (unit assumed)
Experimental: Male wistar rats of approximately 6 months of age were anaesthetised with a mixture of ketamine (40 mg/kg) and xylazine (5 mg/kg) and fitted with TL11M2-C50PXT telemetry transmitters (Data Sciences Intl., St. Paul, Minn., USA) in the peritoneal cavity by performing surgery. Experiments were performed 15 days after surgery. Individual rats were placed in plastic cage on top of a receiver (RLA 2000, Data Science) for the measurement of systolic BP, diastolic BP, Heart rate and respiratory rate. The signals from the transmitters were received by two RLA 2000 receivers and transmitted via a Data Exchange Matrix to a Dataquest PCI card CQ 2240 in the computer. The data were interpreted by the Dataquest program A.R.T. version 2.2 Gold Version.

Plasma binding = assay type: in vitro ADME

Structure (SMILES): COc1cc(C=O)cc2c1[nH]c1ccccc12 [Compound I, 1-methoxy-3-formyl-9H carbazole]
- perivascular and peribronchial inflammation [1]: reduced both perivascular and peribronchial inflammation in a dose dependent manner
- amounts detected in urine ([2]; after 24 hrs): negligible amounts
- plasma clearance rate ([2]; mouse, in vivo): good plasma clearance rate
- volume of distribution ([2]; mouse, in vivo): volume of distribution is high
- intact drug stays in the circulation ([2]; oral administration): ≤ 12 h
- concentration at 0.5 hr ([3]; brain, 0.5 hr, read-out: Organ distribution: Brain): 2300 ng/g
- concentration at 2 hr ([3]; brain, 2 hr, read-out: Organ distribution: Brain): 26700 ng/g
- concentration at 4 hr ([3]; brain, 4 hr, read-out: Organ distribution: Brain): 43300 ng/g
- concentration at 12 hr ([3]; brain, 12 hr, read-out: Organ distribution: Brain): 3600 ng/g
- concentration at 0.5 hr ([3]; heart, 50 not found, 0.5 hr, read-out: Organ distribution: Heart): 185000 ng/g
- concentration at 2 hr ([3]; heart, 2 hr, read-out: Organ distribution: Heart): 263000 ng/g
- concentration at 4 hr ([3]; heart, 4 hr, read-out: Organ distribution: Heart): 168000 ng/g
- concentration at 12 hr ([3]; heart, 12 hr, read-out: Organ distribution: Heart): 32200 ng/g
- concentration at 0.5 h ([3]; intestine, 0.5 hr): 105000 ng/g
- concentration at 2 h ([3]; intestine, 2 hr): 168000 ng/g
- concentration at 4 h ([3]; intestine, 4 hr): 124000 ng/g
- concentration at 12 h ([3]; intestine, 12 hr): 25500 ng/g
- concentration at 0.5 hr ([3]; kidneys, 0.5 hr, read-out: Organ distribution: Kidneys): 135000 ng/g
- concentration at 2 hr ([3]; kidneys, 2 hr, read-out: Organ distribution: Kidneys): 171000 ng/g
- concentration at 4 hr ([3]; kidneys, 4 hr, read-out: Organ distribution: Kidneys): 105000 ng/g
- concentration at 12 hr ([3]; kidneys, 12 hr, read-out: Organ distribution: Kidneys): 15800 ng/g
- concentration at 0.5 hr ([3]; liver, 0.5 hr, read-out: Organ distribution: Liver): 89500 ng/g
- concentration at 2 hr ([3]; liver, 2 hr, read-out: Organ distribution: Liver): 168000 ng/g
- concentration at 4 hr ([3]; liver, 4 hr, read-out: Organ distribution: Liver): 110000 ng/g
- concentration at 12 hr ([3]; liver, 12 hr, read-out: Organ distribution: Liver): 12500 ng/g
- concentration at 2 hr ([3]; lungs, 50 not found, 2 hr, read-out: Organ distribution: Lungs): 273000 ng/g
- concentration at 4 hr ([3]; lungs, 50 not found, 4 hr, read-out: Organ distribution: Lungs): 80700 ng/g
- concentration at 12 hr ([3]; lungs, 50 not found, 12 hr, read-out: Organ distribution: Lungs): 6700 ng/g
- concentration at 0.5 hr ([3]; lungs, 0.5 hr, read-out: Organ distribution: Lungs): 122000 ng/g
- concentration at 0.5 hr ([3]; spleen, 50 not found, 0.5 hr, read-out: Organ distribution: Spleen): 123000 ng/g
- concentration at 2 hr ([3]; spleen, 50 not found, 2 hr, read-out: Organ distribution: Spleen): 140000 ng/g
- concentration at 4 hr ([3]; spleen, 50 not found, 4 hr, read-out: Organ distribution: Spleen): 52500 ng/g
- concentration at 12 hr ([3]; spleen, 50 not found, 12 hr, read-out: Organ distribution: Spleen): 9100 ng/g
- concentration at 0.5 hr ([3]; stomach, 0.5 hr, read-out: Organ distribution: Stomach): 378000 ng/g
- concentration at 2 hr ([3]; stomach, 2 hr, read-out: Organ distribution: Stomach): 689000 ng/g
- concentration at 4 hr ([3]; stomach, 4 hr, read-out: Organ distribution: Stomach): 227000 ng/g
- concentration at 12 hr ([3]; stomach, 12 hr, read-out: Organ distribution: Stomach): 43300 ng/g
- concentration at 0.5 hr ([3]; urine, 0.5 hr, read-out: Organ distribution: Urine/ml): 2600 ng/mL
- concentration at 2 hr ([3]; urine, 2 hr, read-out: Organ distribution: Urine/ml): 6560 ng/mL
- concentration at 4 hr ([3]; urine, 4 hr, read-out: Organ distribution: Urine/ml): 4070 ng/mL
- concentration at 0.5 hr ([3]; male, testes, 0.5 hr, read-out: Organ distribution: Testes): 168000 ng/g
- concentration at 2 hr ([3]; male, testes, 2 hr, read-out: Organ distribution: Testes): 313000 ng/g
- concentration at 4 hr ([3]; male, testes, 4 hr, read-out: Organ distribution: Testes): 58800 ng/g
- concentration at 12 hr ([3]; male, testes, 12 hr, read-out: Organ distribution: Testes): 7800 ng/g
- % Transport (Mean ± SEM) (mice; 12.5 mg/kg p.o.): 74.15 ± 3.4%
- % Transport (Mean ± SEM) (mice; 25 mg/kg p.o.): 76.6 ± 6.7%
- % Transport (Mean ± SEM) (mice; 50 mg/kg p.o.): 77.12 ± 1.49%
- change in charcoal powder transporting ratio vs control (mice; 12.5, 25 and 50 mg/kg): no significant change in charcoal powder transporting ratio
- RR (Male wistar rats; 0 mins): 89.4 ± 1.4
- HR (Male wistar rats; 0 mins): 242.1 ± 9.7
- DBP (Male wistar rats; 0 mins): 71.7 ± 10.2
- SBP (Male wistar rats; 0 mins): 112 ± 2.89
- RR (Male wistar rats; 1 hr): 85.77 ± 8.9
- HR (Male wistar rats; 1 hr): 309.1 ± 45.9
- DBP (Male wistar rats; 1 hr): 82.1 ± 4.5
- SBP (Male wistar rats; 1 hr): 115.4 ± 3.6
- RR (Male wistar rats; 2 hr): 89.5 ± 2.56
- HR (Male wistar rats; 2 hr): 261 ± 13.8
- DBP (Male wistar rats; 2 hr): 77.5 ± 6.07
- SBP (Male wistar rats; 2 hr): 114.5 ± 2.8
- RR (Male wistar rats; 3 hr): 84.5 ± 3.5
- HR (Male wistar rats; 3 hr): 272.7 ± 17.5
- DBP (Male wistar rats; 3 hr): 78.5 ± 8.1
- SBP (Male wistar rats; 3 hr): 110.2 ± 4.5
- RR (Male wistar rats; 4 hr): 96.3 ± 2.1
- HR (Male wistar rats; 4 hr): 273.1 ± 17.06
- DBP (Male wistar rats; 4 hr): 75.9 ± 8.2
- SBP (Male wistar rats; 4 hr): 108.7 ± 5.2
- change in blood pressure, heart rate and respiratory rate (Male wistar rats; rats, before and after treatment): No significant change in blood pressure, heart rate and respiratory rate
- plasma binding (Plasma binding): high plasma binding
